Experimental data as given in paper PMC6332508, “A Promising PET Tracer for Imaging of α7 Nicotinic Acetylcholine Receptors in the Brain: Design, Synthesis, and in Vivo Evaluation of a Dibenzothiophene-Based Radioligand” (Molecules, 2015).
“And” between values parts separate entries of the source, which are not always exact repeats. Identical values can stand only once.

Test system: α7 nAChR
Test: Dynamic PET studies in piglets with kinetic modelling (2TCM)
Format: in vivo
Parameters: clearance rate constant k2, mean: unit not given here
Details: for VND / BPND / Rate Constant K1 / Rate Constant k2 / Rate Constant k3 / Rate Constant k4: piglet brain, 240 min scan data, n = 3; for total volume of distribution VT: piglet, K1/k2(1 + k3/k4)
Protocol: One-tissue and two-tissue compartment models (1TCM and 2TCM) were evaluated for mathematical description of [^18F]10a time-activity curves (TACs) in pig brain regions (Figure 3) using metabolite-corrected arterial plasma input functions. The 2TCM was identified as the more appropriate model based on its smaller Akaike information criterion (AIC) value. The four rate constants K1, k2, k3, and k4 were fitted and the non-displaceable volume of distribution (VND = K1/k2) and the binding potential (BPND = k3/k4) as defined by Innis et al. were calculated for each region of interest (Table 3 and Table 4).
Six female animals were used in this study with anesthesia and surgery performed as described previously. In brief, the animals received initially a premedication with midazolam (1 mg∙kg^−1 i.m.) followed by induction of anesthesia with 3% isoflurane in 70% N2O/30% O2. All incision sites were infiltrated with 1% lidocaine, and the anesthesia was maintained with 1.5% isoflurane throughout the surgical procedure. A central venous catheter was introduced through the left external jugular vein and used for the administration of the radiotracer and drugs, and for volume substitution with heparinized (50 IE∙mL^−1) lactated Ringer’s solution (2 mL∙kg^−1∙h^−1). An endotracheal tube was inserted by tracheotomy for artificial ventilation (Servo Ventilator 900C, Siemens-Elema, Solna, Sweden) after immobilization with pancuronium bromide (0.2 mg∙kg^−1∙h^−1). The artificial ventilation was adjusted to obtain normoxia and normocapnia (Radiometer ABL 500, Copenhagen, Denmark). Polyurethane catheters (i.d., 0.5 mm) were advanced through the left and the right femoral arteries into the abdominal aorta to withdraw arterial blood samples for regular monitoring of blood gases and for radiotracer input function measurements and metabolite analyses. The body temperature was monitored by a rectal temperature probe and maintained at ~38 °C by a heating pad. After the surgical procedure has been completed, anesthesia was maintained with 0.5% isoflurane in 70% N2O/30% O2, and the animals were allowed to stabilize for 1 h before imaging procedure.
PET imaging was performed according to the protocol described recently. In brief, a clinical tomograph (ECAT Exact HR+; Siemens Healthcare GmbH, Erlangen, Germany) was used with animals lying prone with the head placed in a custom-made head holder. For attenuation and scatter correction, transmission scans were acquired using three rotating ^68Ge rod sources. The radiotracer was injected as an intravenous (i.v.) bolus (10 mL saline with 340–494 MBq [^18F]10a) by a syringe pump within 2 min followed by flushing with 10 mL heparinized saline (50 IE∙mL^−1). PET scanning started at the time of injection (0 min) and dynamic emission data were acquired for a total of 240 min. Three animals were investigated under baseline conditions, and another three under blocking conditions with administration of 3 mg∙kg^−1 i.v. of the α7 nAChR partial agonist NS6740 at 3 min before radiotracer injection followed by a continuous infusion throughout the scan (1 mg∙kg^−1∙h^−1).
Arterial blood was sampled using a peristaltic pump during the first 20 min of the scan followed by manual sampling at 25, 30, 40, 50, 60, 90, 120, 150, 180, 210, and 240 min after injection. Plasma was obtained by centrifugation (13,000 rpm, 2 min at 21 °C) and total radioactivity concentration was measured using a gamma-counter (1470 Wizard; PerkinElmer, Shelton, CT, USA) cross-calibrated to the PET scanner. In addition, arterial whole blood was sampled manually at 4, 16, 30, 60, and 120 min p.i. and plasma obtained for metabolite analyses to determine the fraction of non-metabolized [^18F]10a.
The plasma input function was corrected for the presence of radioactive metabolites by determination of the parent fraction as described previously. […]

[1] = Occipital Cortex, blocking (NS6740)
[2] = Parietal Cortex, blocking (NS6740)

Which results are given for O=S1(=O)c2ccc([18F])cc2-c2ccc(N3CCN4CCC3CC4)cc21 [[^18F]10a]?
VND (Occipital Cortex, baseline): 4.07 ± 2.23; BPND [1]: 0.95 ± 1.03; Rate Constant K1 [1]: 0.668 ± 0.103 mL·cm^−3·min^−1; Rate Constant k2 [1]: 0.064 ± 0.019 min⁻¹; Rate Constant k3 [1]: 0.022 ± 0.032 min⁻¹; Rate Constant k4 [1]: 0.013 ± 0.023 min⁻¹; VND [1]: 11.36 ± 4.41; BPND (Parietal Cortex, baseline): 3.47 ± 1.65; Rate Constant K1 (Parietal Cortex, baseline): 0.399 ± 0.038 mL·cm^−3·min^−1; Rate Constant k2 (Parietal Cortex, baseline): 0.140 ± 0.089 min⁻¹; Rate Constant k3 (Parietal Cortex, baseline): 0.126 ± 0.135 min⁻¹; Rate Constant k4 (Parietal Cortex, baseline): 0.031 ± 0.021 min⁻¹; VND (Parietal Cortex, baseline): 3.88 ± 2.49; BPND [2]: 0.82 ± 0.88; Rate Constant K1 [2]: 0.659 ± 0.120 mL·cm^−3·min^−1; Rate Constant k2 [2]: 0.055 ± 0.013 min⁻¹; Rate Constant k3 [2]: 0.015 ± 0.020 min⁻¹; Rate Constant k4 [2]: 0.011 ± 0.021 min⁻¹; VND [2]: 12.58 ± 4.52; BPND (Pons, baseline): 2.76 ± 0.81; Rate Constant K1 (Pons, baseline): 0.440 ± 0.045 mL·cm^−3·min^−1; Rate Constant k2 (Pons, baseline): 0.149 ± 0.059 min⁻¹; Rate Constant k3 (Pons, baseline): 0.068 ± 0.042 min⁻¹; Rate Constant k4 (Pons, baseline): 0.026 ± 0.019 min⁻¹; VND (Pons, baseline): 3.32 ± 1.40; BPND (Pons, blocking (NS6740)): 0.76 ± 1.16; Rate Constant K1 (Pons, blocking (NS6740)): 0.670 ± 0.092 mL·cm^−3·min^−1; Rate Constant k2 (Pons, blocking (NS6740)): 0.084 ± 0.030 min⁻¹; Rate Constant k3 (Pons, blocking (NS6740)): 0.019 ± 0.023 min⁻¹; Rate Constant k4 (Pons, blocking (NS6740)): 0.012 ± 0.016 min⁻¹; VND (Pons, blocking (NS6740)): 8.93 ± 3.96; BPND (Striatum, baseline): 3.98 ± 1.40; Rate Constant K1 (Striatum, baseline): 0.382 ± 0.028 mL·cm^−3·min^−1; Rate Constant k2 (Striatum, baseline): 0.144 ± 0.079 min⁻¹; Rate Constant k3 (Striatum, baseline): 0.114 ± 0.093 min⁻¹; Rate Constant k4 (Striatum, baseline): 0.027 ± 0.014 min⁻¹; VND (Striatum, baseline): 3.35 ± 1.81; BPND (Striatum, blocking (NS6740)): 0.75 ± 1.29; Rate Constant K1 (Striatum, blocking (NS6740)): 0.624 ± 0.143 mL·cm^−3·min^−1; Rate Constant k2 (Striatum, blocking (NS6740)): 0.057 ± 0.015 min⁻¹; Rate Constant k3 (Striatum, blocking (NS6740)): 0.020 ± 0.025 min⁻¹; Rate Constant k4 (Striatum, blocking (NS6740)): 0.011 ± 0.017 min⁻¹; VND (Striatum, blocking (NS6740)): 11.78 ± 4.91; BPND (Thalamus, baseline): 3.51 ± 1.13; Rate Constant K1 (Thalamus, baseline): 0.448 ± 0.027 mL·cm^−3·min^−1; Rate Constant k2 (Thalamus, baseline): 0.150 ± 0.071 min⁻¹; Rate Constant k3 (Thalamus, baseline): 0.111 ± 0.085 min⁻¹; Rate Constant k4 (Thalamus, baseline): 0.030 ± 0.018 min⁻¹; VND (Thalamus, baseline): 3.67 ± 2.10; BPND (Thalamus, blocking (NS6740)): 0.88 ± 1.00; Rate Constant K1 (Thalamus, blocking (NS6740)): 0.762 ± 0.129 mL·cm^−3·min^−1; Rate Constant k2 (Thalamus, blocking (NS6740)): 0.070 ± 0.025 min⁻¹; Rate Constant k3 (Thalamus, blocking (NS6740)): 0.023 ± 0.031 min⁻¹; Rate Constant k4 (Thalamus, blocking (NS6740)): 0.012 ± 0.021 min⁻¹; VND (Thalamus, blocking (NS6740)): 12.09 ± 5.31; BPND (Whole, baseline): 3.31 ± 1.02; Rate Constant K1 (Whole, baseline): 0.362 mL·cm^−3·min^−1 and 0.362 ± 0.038 mL·cm^−3·min^−1; Rate Constant k2 (Whole, baseline): 0.131 ± 0.062 min⁻¹; Rate Constant k3 (Whole, baseline): 0.093 ± 0.074 min⁻¹; Rate Constant k4 (Whole, baseline): 0.027 ± 0.018 min⁻¹; VND (Whole, baseline): 3.32 ± 1.74; BPND (Whole, blocking (NS6740)): 0.84 ± 1.07; Rate Constant K1 (Whole, blocking (NS6740)): 0.598 ± 0.108 mL·cm^−3·min^−1; Rate Constant k2 (Whole, blocking (NS6740)): 0.062 ± 0.015 min⁻¹; Rate Constant k3 (Whole, blocking (NS6740)): 0.018 ± 0.022 min⁻¹; Rate Constant k4 (Whole, blocking (NS6740)): 0.011 ± 0.018 min⁻¹; VND (Whole, blocking (NS6740)): 10.27 ± 3.94; total volume of distribution VT (cerebellum, baseline): 13 mL∙cm^−3; total volume of distribution VT (thalamus, baseline): 17 mL∙cm^−3; clearance rate constant k2, mean (whole brain, baseline): 0.131
